From US11028074B2, “CD73 inhibitors” (Eli Lilly and Company, priority 2018, dated 2021)

Experiments:
[1] = molecular target: T1, human CD73 (Homo sapiens, UniProt P21589); assay: Human CD73 Biochemical Assay; settings: 2 μM AMP, 50 pM CD73 protein, 30 minutes at RT
T1 construct: human CD73 (amino acids 1-547); 6-His (C); made in house; host or cells: HEK293F (transient transfection)
T1 sequence (P21589 27-547): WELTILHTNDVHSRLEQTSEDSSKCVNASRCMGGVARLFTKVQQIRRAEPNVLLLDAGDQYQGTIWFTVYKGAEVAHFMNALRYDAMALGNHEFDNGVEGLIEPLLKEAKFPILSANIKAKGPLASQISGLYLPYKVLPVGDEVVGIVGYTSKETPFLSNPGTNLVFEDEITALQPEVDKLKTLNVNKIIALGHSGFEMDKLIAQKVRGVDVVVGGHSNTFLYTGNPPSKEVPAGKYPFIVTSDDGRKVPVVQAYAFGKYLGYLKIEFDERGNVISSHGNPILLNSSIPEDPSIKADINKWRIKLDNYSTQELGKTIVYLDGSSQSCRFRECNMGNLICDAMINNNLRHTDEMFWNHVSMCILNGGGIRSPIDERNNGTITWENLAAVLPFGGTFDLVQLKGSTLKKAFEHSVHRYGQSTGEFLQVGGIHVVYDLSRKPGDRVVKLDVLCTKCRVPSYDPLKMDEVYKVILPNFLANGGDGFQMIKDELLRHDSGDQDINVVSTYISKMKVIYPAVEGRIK
Procedure: An Agilent 300 RapidFire automated extraction system (Agilent, Santa Clara, Calif.) is used with three HPLC quaternary pumps, coupled to an Sciex 6500 triple quadrupole mass spectrometer (AB Sciex, Framingham, Mass.) with an electrospray ionization (ESI) interface source.
Solvent A, used for sample loading and washing, is 50 mM ammonium formate, pH 4.0 containing 5% (v/v) ACN. Solvent B, used for sample elution, is 0.3% formic acid+2% ammonium hydroxide in 70% ACN/30% MeOH. Samples are sequentially analyzed by aspirating 10 μL onto the collection loop under vacuum directly from multiwell plates.
Equip the triple quadrupole mass spectrometer with an electrospray ionization (ESI) source and monitor analytes using selected reaction monitoring (SRM) in positive mode (M+H)+. […] Calculate area ratio values for adenosine and adenosine monophosphate using 13C5 Adenosine and 15N5 AMP as internal standards, respectively.
The purpose of this assay is to identify and characterize inhibitors of CD73 enzyme activity. […] Adenosine- and adenosine ribose-^13C5 (internal standard) levels are determined utilizing mass spectrometry as described above. Use signal ratio (adenosine peak integration/adenosine internal standard peak integration) to quantitate each reaction. […] For screening purposes, test each compound at 50 μM in 1% DMSO.

[2] = molecular target: T1, human CD73; assay: Human CD73 Mechanism Assay; assay type: biochemical; settings: varying inhibitor and AMP concentrations 0.023 to 50 μM, mixed-model fit
[3] = molecular target: T2, CD73 (Homo sapiens, UniProt P21589); assay: LC/MS Based Assay for Measuring CD73 Activity in Human Serum; assay type: biochemical; design: from tissue; host or cells: normal human serum; settings: concentrations corrected with the fraction unbound, read-out: EC50, inhibition of CD73 activity in human serum
T2 sequence (P21589 27-549): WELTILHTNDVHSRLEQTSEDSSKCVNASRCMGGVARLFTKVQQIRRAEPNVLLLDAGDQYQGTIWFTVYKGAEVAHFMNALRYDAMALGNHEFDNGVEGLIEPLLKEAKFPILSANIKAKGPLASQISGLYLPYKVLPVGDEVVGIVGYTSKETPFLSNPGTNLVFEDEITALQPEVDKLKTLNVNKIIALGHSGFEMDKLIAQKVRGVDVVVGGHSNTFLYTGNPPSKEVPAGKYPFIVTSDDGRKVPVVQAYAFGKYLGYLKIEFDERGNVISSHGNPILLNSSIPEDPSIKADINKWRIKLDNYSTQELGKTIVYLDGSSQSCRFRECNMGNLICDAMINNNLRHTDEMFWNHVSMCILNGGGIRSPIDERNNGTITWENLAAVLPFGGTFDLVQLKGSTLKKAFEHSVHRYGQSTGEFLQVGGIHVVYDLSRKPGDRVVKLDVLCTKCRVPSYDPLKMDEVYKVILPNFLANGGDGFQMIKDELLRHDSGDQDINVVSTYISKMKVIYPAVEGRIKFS
Procedure: Fresh normal human blood is centrifuged at 1,500 g for 15 minutes at room temperature, and the upper fraction containing serum is collected. […] After incubation on ice for 60 min, […] (50 uM) is added to each well in the plate, and the plate is incubated at room temperature for 15 min. The plate is then placed on dry ice with addition of 200 uL/well of 17.3 TCA followed by shaking at 26 fps for 3 min with a plate-shaking machine (Qiagen). The plate is then centrifuged at 2940 g for 20 min at 4° C. […] After further centrifugation at 2940 g for 20 min at 4° C., 200 ul/well of the supernatant is used for analysis of ^13C10-^15N5-adenosine, ^13C10-^15N5-inosine and ^15N5-hypoxanthine by LC/MS as described above. For EC50 calculations, the concentrations of the CD73 inhibitor in the serum are corrected with the fraction unbound (%) derived from in silico models or experimentally.

[4] = molecular target: T2, CD73; assay: Calu6 Human Cell Assay; assay type: cell-based; settings: Calu6 cells, 50 μM AMP premix, 60 minutes at room temperature
Procedure: The purpose of this assay is to test compounds against CD73 in a cell-based assay. […] Plates are incubated at room temperature for 60 minutes.

[5] = system: EG7 (lymphoma), MC38 (colon), AT-3 (breast) and B16F10 (melanoma) tumor cells; settings: syngeneic mice injected subcutaneously with EG7, MC38, AT-3 and B16F10 tumor cells; cited from earlier work

Row | IC50 [1] | mechanism of action (type of inhibition) [2] | EC50 [3] | IC50 [4] | SMILES | tumor growth [5]
1 | 43 nM | uncompetitive inhibitor | 100 nM | 28 nM | CC[C@H]1C[C@@H]1c1cc(-c2c[nH]c(=O)[nH]c2=O)nnc1C [Example 1, 5-[5-[(1S,2S)-2-Ethylcyclopropyl]-6-methyl-pyridazin-3-yl]-1H-pyrimidine-2,4-dione] | 
2 |  |  |  |  | Nc1ncnc2c1ncn2[C@@H]1O[C@H](COP(=O)(O)CP(=O)(O)O)[C@@H](O)[C@H]1O [α,β-methyleneadenosine 5′-diphosphate] | reduce tumor growth
